Measurements: patent US6737383B1, “Herbicidal oxadiazolidines” (priority 1999, dated 2004)

How the values were obtained:
blackgrass = assay: Test B pre/postemergence blackgrass; format: in vivo, Alopecurus myosuroides
How it was run: (§1)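 Herbicidal effect was estimated by eye on a ten-point control scale after plants spent twelve to sixteen days in a greenhouse following soil or foliar treatment. Foliar sprays targeted plants at one to four leaves; all doses were formulated in a non-phytotoxic solvent with surfactant.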

purple nutsedge = assay: Test B pre/postemergence purple nutsedge; format: in vivo, Cyperus rotundus
How it was run: as §1

wheat = assay: Test B pre/postemergence wheat; format: in vivo, Triticum aestivum
How it was run: as §1

sugar beet = assay: Test B pre/postemergence sugar beet; format: in vivo, Beta vulgaris
How it was run: as §1

corn = assay: Test B pre/postemergence corn; format: in vivo, Zea mays
How it was run: as §1

velvetleaf = assay: Test B pre/postemergence velvetleaf; format: in vivo, Abutilon theophrasti
How it was run: as §1

bedstraw = assay: Test B pre/postemergence bedstraw; format: in vivo, Galium aparine
How it was run: as §1

soybean = assay: Test B pre/postemergence soybean; format: in vivo, Glycine max
How it was run: as §1

giant foxtail = assay: Test B pre/postemergence giant foxtail; format: in vivo, Setaria faberii
How it was run: as §1

crabgrass = assay: Test B pre/postemergence crabgrass; format: in vivo, Digitaria sanguinalis
How it was run: as §1

cocklebur = assay: Test B pre/postemergence cocklebur; format: in vivo, Xanthium strumarium
How it was run: as §1

surinam grass = assay: Test B pre/postemergence surinam grass; format: in vivo, Brachiaria decumbens
How it was run: as §1

morningglory = assay: Test B pre/postemergence morningglory; format: in vivo, Ipomoea hederacea
How it was run: as §1

rape = assay: Test B pre/postemergence rape; format: in vivo, Brassica napus
How it was run: as §1

pigweed = assay: Test B pre/postemergence pigweed; format: in vivo, Amaranthus retroflexus
How it was run: as §1

wild oat = assay: Test B pre/postemergence wild oat; format: in vivo, Avena fatua
How it was run: as §1

[1] = Postemergence, Rate 62 g/ha, scale of 0 to 10, 0 is no effect, 10 is complete control
[2] = Postemergence, Rate 125 g/ha, scale 0 to 10, 0 is no effect, 10 is complete control
[3] = Postemergence, Rate 500 g/ha, scale 0 to 10, 0 is no effect, 10 is complete control
[4] = Preemergence, Rate 62 g/ha, scale 0 to 10 (0 no effect, 10 complete control)
[5] = Preemergence, Rate 125 g/ha, scale 0 to 10, 0 is no effect, 10 is complete control
[6] = Preemergence, Rate 500 g/ha, scale of 0 to 10 where 0 is no effect and 10 is complete control
[7] = Rate 250 g/ha, Postemergence, scale of 0 to 10 where 0 is no effect and 10 is complete control

## CC(C)N(C(=O)n1oc(=O)n(CCCCF)c1=O)c1ccc(Cl)cc1 [Compound 551]
blackgrass; [1]
  Blackgrass plant response rating: 4
blackgrass; [2]
  Blackgrass plant response rating: 7
blackgrass; [3]
  Plant response rating, Blackgrass: 7
blackgrass; [4]
  Blackgrass plant response rating: 3
blackgrass; [5]
  Blackgrass plant response rating: 7
blackgrass; Preemergence, Rate 250 g/ha
  Blackgrass plant response rating (0 to 10 scale): 9
blackgrass; [6]
  Blackgrass plant response rating: 9
blackgrass; [7]
  Plant response rating, Blackgrass: 7
Purple nutsedge; [3]
  Plant response rating, Nutsedge: 0
Purple nutsedge; [4]
  Nutsedge plant response rating: 0
Purple nutsedge; [5]
  Nutsedge plant response rating: 0
Purple nutsedge; Preemergence, Rate 250 g/ha
  Nutsedge plant response rating (0 to 10 scale): 0
Purple nutsedge; [6]
  Nutsedge plant response rating: 0
wheat; [1]
  Wheat plant response rating: 0
wheat; [3]
  Plant response rating, Wheat: 3
wheat; [4]
  Wheat plant response rating: 0
wheat; [5]
  Wheat plant response rating: 0
wheat; Preemergence, Rate 250 g/ha
  Wheat plant response rating (0 to 10 scale): 3
wheat; [6]
  Wheat plant response rating: 6
wheat; [7]
  Plant response rating, Wheat: 0
Sugar beet; [1]
  Sugarbeets plant response rating: 2
Sugar beet; [3]
  Plant response rating, Sugarbeets: 8
Sugar beet; [4]
  Sugarbeets plant response rating: 2
Sugar beet; [5]
  Sugarbeets plant response rating: 6
Sugar beet; Preemergence, Rate 250 g/ha
  Sugarbeets plant response rating (0 to 10 scale): 7
Sugar beet; [6]
  Sugarbeets plant response rating: 9
Sugar beet; [7]
  Plant response rating, Sugarbeets: 5
corn; [1]
  Corn plant response rating: 0
corn; [2]
  Corn plant response rating: 0
corn; [3]
  Plant response rating, Corn: 0
corn; [4]
  Corn plant response rating: 0
corn; [5]
  Corn plant response rating: 0
corn; Preemergence, Rate 250 g/ha
  Corn plant response rating (0 to 10 scale): 0
corn; [6]
  Corn plant response rating: 5
corn; [7]
  Plant response rating, Corn: 0
velvetleaf; [1]
  Velvetleaf plant response rating: 0
velvetleaf; [3]
  Plant response rating, Velvetleaf: 3
velvetleaf; [4]
  Velvetleaf plant response rating: 0
velvetleaf; [5]
  Velvetleaf plant response rating: 0
velvetleaf; Preemergence, Rate 250 g/ha
  Velvetleaf plant response rating (0 to 10 scale): 2
velvetleaf; [6]
  Velvetleaf plant response rating: 4
velvetleaf; [7]
  Plant response rating, Velvetleaf: 3
bedstraw; [1]
  Bedstraw plant response rating: 0
bedstraw; [2]
  Bedstraw plant response rating: 0
bedstraw; [3]
  Plant response rating, Bedstraw: 9
bedstraw; [5]
  Bedstraw plant response rating: 8
bedstraw; [6]
  Bedstraw plant response rating: 10
bedstraw; [7]
  Plant response rating, Bedstraw: 4
soybean; [1]
  Soybean plant response rating: 2
soybean; [3]
  Plant response rating, Soybean: 3
soybean; [4]
  Soybean plant response rating: 0
soybean; [5]
  Soybean plant response rating: 0
soybean; Preemergence, Rate 250 g/ha
  Soybean plant response rating (0 to 10 scale): 0
soybean; [6]
  Soybean plant response rating: 0
soybean; [7]
  Plant response rating, Soybean: 3
Giant foxtail; [1]
  Giant foxtail plant response rating: 0
Giant foxtail; [3]
  Plant response rating, Giant foxtail: 5
Giant foxtail; [4]
  Giant foxtail plant response rating: 10
Giant foxtail; [5]
  Giant foxtail plant response rating: 10
Giant foxtail; Preemergence, Rate 250 g/ha
  Giant foxtail plant response rating (0 to 10 scale): 10
Giant foxtail; [6]
  Giant foxtail plant response rating: 10
Giant foxtail; [7]
  Plant response rating, Giant foxtail: 5
crabgrass; [1]
  Crabgrass plant response rating: 0
crabgrass; [2]
  Crabgrass plant response rating: 6
crabgrass; [3]
  Plant response rating, Crabgrass: 9
crabgrass; [4]
  Crabgrass plant response rating: 9
crabgrass; [5]
  Crabgrass plant response rating: 9
crabgrass; Preemergence, Rate 250 g/ha
  Crabgrass plant response rating (0 to 10 scale): 10
crabgrass; [6]
  Crabgrass plant response rating: 10
crabgrass; [7]
  Plant response rating, Crabgrass: 8
cocklebur; [1]
  Cocklebur plant response rating: 0
cocklebur; [2]
  Cocklebur plant response rating: 0
cocklebur; [3]
  Plant response rating, Cocklebur: 0
cocklebur; [4]
  Cocklebur plant response rating: 0
cocklebur; [5]
  Cocklebur plant response rating: 0
cocklebur; Preemergence, Rate 250 g/ha
  Cocklebur plant response rating (0 to 10 scale): 0
cocklebur; [6]
  Cocklebur plant response rating: 0
cocklebur; [7]
  Plant response rating, Cocklebur: 0
Surinam grass; [1]
  B. signalgrass plant response rating: 0
Surinam grass; [2]
  B. signalgrass plant response rating: 0
Surinam grass; [3]
  Plant response rating, B. signalgrass: 4
Surinam grass; [4]
  B. signalgrass plant response rating: 4
Surinam grass; [5]
  B. signalgrass plant response rating: 9
Surinam grass; Preemergence, Rate 250 g/ha
  B. signalgrass plant response rating (0 to 10 scale, 0 is no effect, 10 is complete control): 9
Surinam grass; [6]
  B. signalgrass plant response rating: 9
Surinam grass; [7]
  Plant response rating, B. signalgrass: 2
morningglory; [1]
  Morningglory plant response rating: 1
morningglory; [2]
  Morningglory plant response rating: 2
morningglory; [3]
  Plant response rating, Morningglory: 3
morningglory; [4]
  Morningglory plant response rating: 0
morningglory; [5]
  Morningglory plant response rating: 0
morningglory; Preemergence, Rate 250 g/ha
  Morningglory plant response rating (0 to 10 scale): 0
morningglory; [6]
  Morningglory plant response rating: 0
morningglory; [7]
  Plant response rating, Morningglory: 4
rape; [1]
  Rape plant response rating: 3
rape; [2]
  Rape plant response rating: 7
rape; [3]
  Plant response rating, Rape: 5
rape; [4]
  Rape plant response rating: 0
rape; [5]
  Rape plant response rating: 3
rape; Preemergence, Rate 250 g/ha
  Rape plant response rating (0 to 10 scale): 3
rape; [6]
  Rape plant response rating: 9
rape; [7]
  Plant response rating, Rape: 7
pigweed; [1]
  Redroot pigweed plant response rating: 0
pigweed; [3]
  Plant response rating, Redroot pigweed: 7
pigweed; [4]
  Redroot pigweed plant response rating: 8
pigweed; [5]
  Redroot pigweed plant response rating: 9
pigweed; Preemergence, Rate 250 g/ha
  Redroot pigweed plant response rating (0 to 10 scale): 10
pigweed; [6]
  Redroot pigweed plant response rating: 10
pigweed; [7]
  Plant response rating, Redroot pigweed: 3
Wild oat; [1]
  Wild oats plant response rating: 0
Wild oat; [3]
  Plant response rating, Wild oats: 5
Wild oat; [4]
  Wild oats plant response rating: 0
Wild oat; [5]
  Wild oats plant response rating: 3
Wild oat; Preemergence, Rate 250 g/ha
  Wild oats plant response rating (0 to 10 scale): 3
Wild oat; [6]
  Wild oats plant response rating: 9
Wild oat; [7]
  Plant response rating, Wild oats: 0
